The text below walks through data of US8637058B2, “Compositions based on cupric salts, cupric salts and their use for controlling phytopathogens” (priority 2001, dated 2014).

Structures are written as SMILES.

The experiment deals with isolated portion of the phytopathogen with a reduced sensitivity (Plasmopara viticola). In words: Control of Plasmopara viticola on grapes, preventive leaf application (greenhouse test), isolate with reduced sensitivity. The experiment is classed as in vivo. The conditions noted are these: fungicide alone at 0.05 ppm, scale 100 to 0. As for the experimental part:
Efficacy of Compound Nr. 1 Mixed with Another Fungicidal Compound in the Control of Plasmopara viticola on Grapes in Preventive Leaf Application (Greenhouse Test) Table 3.
Leaves of cultivar Dolcetto grape vines, cultivated in vases, in a conditioned environment (20±1° C., 70% relative humidity) are treated by spraying both sides of the leaves with compound Nr. 1 mixed with another fungicide dispersed in a hydroacetone solution at 10% by volume of acetone containing 0.3% of tween 20.
After remaining 24 hours in a conditioned environment, the plants are infected on the lower side with an aqueous suspension of spores of Plasmopara viticola (200,000 spores per cm^3).
The plants are kept in a humidity saturated environment, at 21° C., for the incubation period of the fungus and, at the end of this period (7 days), the fungicidal activity is evaluated according to a percentage evaluation scale from 100 (healthy plant) to 0 (completely infected plant).
From the data indicated in Table 3, the synergic effect of the mixtures, consisting of compound Nr. […]
When the fungicidal activity experimentally evaluated is greater than the value of E, this activity should be considered as a synergic effect.

`COCC(=O)N(c1c(C)cccc1C)C(C)C(=O)OC` (stereo not shown) [Metalaxyl, metalaxyl]: the “Activity (y)” value worked out at 12.
